Read-outs that look alike come from different tables or passages of the source.
Tests used:
[1] = system: Malassezia furfur (ATCC #38593); test: Anti-fungal activity against Malassezia furfur (96 well broth assay, Alamar blue); format: cell-based; settings: ATCC38593, 120 h; for IC50: read-out: M. furfur IC50; for MIC: visible growth
Method: The terms Minimum Inhibitory Concentration and Half Maximal Inhibitory Concentration will be understood to have the following meanings. • Minimum Inhibitory Concentration (MIC) The minimum inhibitory concentration (MIC) will be understood to represent the lowest concentration of an anti-microbial that will inhibit the visible growth of a microorganism after overnight incubation. • Half Maximal Inhibitory Concentration (IC50) The half maximal inhibitory concentration (IC50) is a measure of the effectiveness of a substance in inhibiting a spec biological or biochemical function. This quantitative measure indicates how much of a particular drug or other substance (inhibitor) is needed to inhibit a given biological process (or component of a process, i.e. an enzyme, cell, cell receptor or microorganism) by half. IC50 represents the concentration of an active that is required for 50% inhibition in-vitro.
Malassezia furfur (ATCC #38593) was cultured on Media C agar for 7 days at 37° C. Yeast colonies were then harvested into 0.9% saline sterile diH2O and diluted to approximately 1.5×10^6 CFU/mL using a 0.5 MacFarland standard (Fisher #R20410) to create an assay inoculum. Assay inoculum was added to sterile Media C broth to a final concentration of 4.5×10^4 CFU/mL. Assays were carried out in 96 well plates with a final well volume of 100 μL.
Extract fractions and pure compounds were tested in triplicate against each organism. Extract fractions and pure compounds were re-suspended in sterile 20% DMSO.
Each plate contained eight un-inoculated positive controls (media+20% DMSO), eight untreated negative controls (Media+20% DMSO+organism), and one column containing a concentration range of a ketoconazole as a control antibiotic. The assay plate was incubated at 37° C. for 5 days after which growth within the wells were visualised and photographed with a UVP Biospectrum 500 imaging system. Alamar blue was then added to each well at 10% of the culture volume (11 μL in 100 μL). Fluorescence was monitored using a BioTek Synergy HT plate reader at 530/25 excitation, 590/35 emission and 35 sensitivity at both time zero and 4 hours after Alamar blue was added. After subtracting the time zero emission 590 nm measurement from the final reading the inferred percentage of microorganism survival relative to vehicle control wells were calculated and the IC50 was determined.

[2] = system: Human foreskin BJ fibroblast cells (ATCC CRL-2522); test: Cytotoxicity against fibroblast cells (Alamar blue); format: cell-based; settings: for Fibroblast MIC: 24 hrs treatment
Method: (§1) Human foreskin BJ fibroblast cells (ATCC CRL-2522) were grown and maintained in 15 mL of Eagle's minimal essential medium (Sigma M5650) supplemented with 10% fetal bovine serum (VWR #CA95043-976) and 100 μU penicillin and 0.1 mg/mL streptomycin (VWR #CA12001-692) in T75 cm2 cell culture flasks (VWR #CABD353136) at 37° C. in a humidified atmosphere of 5% CO2. Culture medium was refreshed every two to three days and cells were not allowed to exceed 80% confluency.
(§2) At 80% confluency, the cells were counted, diluted and plated into 96 well treated cell culture plates (VWR #29442-054) at a cell density of 10000 cells per well in 90 μL of respective growth medium. All media used for the assay were the same without the addition of antibiotics. The plates were incubated at 37° C. in a humidified atmosphere of 5% CO2 to allow cells to adhere to the plates for 24 hrs before treatment. DMSO was used as the vehicle at a final concentration of 1% in the wells.
(§3) All compounds to be tested were resolublised in sterile DMSO (Sigma #D2438) and a dilution series was prepared for each cell line using the respective cell culture growth medium of which 10 μL were added to the respective assay plate well yielding eight final concentrations ranging from 128 μg/mL to 1 μg/mL per well (final well volume of 100 μL) and incubated at 37° C. in a humidified atmosphere of 5% CO2 for 24 hrs.
(§4) All samples were tested in triplicate. Each plate contained eight un-inoculated positive controls (media+20% DMSO), eight untreated negative controls (Media+20% DMSO+cells). Alamar blue (Invitrogen #Dal1100) was added, 24 hrs after treatment, to each well at 10% of the culture volume (11 μL in 100 μL). Fluorescence was monitored using a BioTek Synergy HT plate reader at 530/25 excitation, 590/35 emission and 35 sensitivity at both time zero and 4 hrs after Alamar blue was added. After subtracting the time zero emission 590 nm measurement from the final reading the inferred percentage of microorganism survival relative to vehicle control wells were calculated and the IC50 was determined.

[3] = as above; format: cell-based, human; settings: human, 24 hrs treatment, Alamar blue, read-out: Fibroblast IC50
Method: as §1, §2, §3, §4

[4] = Cytotoxicity against keratinocyte cells (Alamar blue); format: cell-based, human; settings: human
Method: (§5) Adult human epidermal keratinocytes (Heka) isolated from skin (Invitrogen #C-005-5C) were grown and maintained in 15 mL of EPilife medium (Invitrogen #M-EPI-500) supplemented with HKGS growth supplements (Invitrogen #S-001-5) (0.2% v/v bovine pituitary extract (BPE), 5 μg/mL bovine insulin, 0.18 μg/mL hydrocortisone, 5 μg/mL bovine transferrin, 0.2 ng/mL human epidermal growth factor) and 50 μg/mL gentamicin (Sigma #G1397-10ML) in T75 cm2 cell culture flasks (VWR #CABD353136) and incubated at 37° C. in a humidified atmosphere of 5% CO2. Growth medium was refreshed every 2 days until the cells reached 50% confluency and then the medium was refreshed every 24 hours until 80% confluency was obtained.
as §2, §3, §4

[5] = system: Adult human epidermal keratinocytes (Heka); test: as above; format: cell-based; settings: for Keratinocyte MIC: 24 hrs treatment
Method: as §5, §2, §3, §4

[6] = Stability of pycnidione formulated in off-the-shelf shampoo composition; format: physicochemical; settings: J&J baby shampoo, after a two month period
[7] = human foreskin BJ fibroblast cells (ATCC CRL-2522)
[8] = adult human epidermal keratinocytes (Heka), 24 hrs treatment, Alamar blue, read-out: Keratinocyte IC50
[9] = at 8 μg/ml, where inhibition of Malassezia yeasts is retained

Row | SMILES | IC50 ([1]; 37° C., 5 days, Alamar blue) [µg/mL] | MIC ([1]; 37° C., 5 days) [µg/mL] | Fibroblast MIC [2] [µg/mL] | CC50 at 24 h [3, 7] [µg/mL] | CC50 at 24 h [4, 8] [µg/mL] | Keratinocyte MIC [5] [µg/mL] | IC50 [1] [µg/mL] | cell line cytotoxicity at lower concentrations (fibroblast) [2, 9] | CC50 at 24 h [3] [µg/mL] | CC50 at 24 h ([4]; text of b135, read-out: IC50, toxicity to keratinocyte cells) [µg/mL] | cell line cytotoxicity at lower concentrations (keratinocyte) [5, 9] | stability of shampoo composition [6]
1 | Cc1cc(=O)c(O)cc2c1C[C@H]1CC(C)(C)/C=C/C[C@@]3(C)Oc4cc(O)cc(C)c4C[C@@H]3C[C@H](O)[C@]1(C)O2 [Epolone A, epolone A] | 48 | 64 | 32 | 14 | 13 | 32 |  |  |  |  |  | 
2 | C/C1=C\CC(C)(C)/C=C/C[C@@]2(C)Oc3cc(O)c(=O)cc(C)c3C[C@@H]2C[C@H]1O [Epolone B, epolone B] | 24 | 32 | >128 | > 128 | 50 | >128 |  |  |  |  |  | 
3 | Cc1cc(=O)c(O)cc2c1C[C@H]1CC(C)(C)/C=C/C[C@@]3(C)Oc4cc(O)c(=O)cc(C)c4C[C@@H]3C[C@H](O)[C@]1(C)O2 [Pycnidione, pycnidione] |  | 8 | 64 |  |  | 64 | 6 | no cell line cytotoxicity was observed | 11 | 15 | no cell line cytotoxicity was observed | remained stable
4 | [O-]n1ccccc1=S.[O-]n1ccccc1=S.[Zn+2] [zinc pyrithione, zinc salt of 1-hydroxy-2-pyridinethione, reference compound] |  |  |  |  |  | 1 |  |  |  |  |  | 

From US10898421B2, “Anti-dandruff composition comprising pycnidione and epolone” (Croda International PLC, priority 2015, dated 2021)
